Results on four molecules are retold here after patent US11103532B2, “Chimeric protein” (AUTOLUS LIMITED, priority 2015, dated 2021).

The labels stand for the following.
B1: FRB-Casp9: catalytic domain of Casp9 fused with FRB; tested co-expressed with FKBP12-Casp9 (protein)
chain: MASRILWHEMWHEGLEEASRLYFGERNVKGMFEVLEPLHAMMERGPQTLKETSFNQAYGRDLMEAQEWCRKYMKSGNVKDLLQAWDLYYHVFRRISKLEYSGGGSGVDGFGDVGALESLRGNADLAYILSMEPCGHCLIINNVNFCRESGLRTRTGSNIDCEKLRRRFSSLHFMVEVKGDLTAKKMVLALLELAQQDHGALDCCVVVILSHGCQASHLQFPGAVYGTDGCPVSVEKIVNIFNGTSCPSLGGKPKLFFIQACGGEQKDHGFEVASTSPEDESPGSNPEPDATPFQEGLRTFDQLDAISSLPTPSDIFVSYSTFPGFVSWRDPKSGSWYVETLDDIFEQWAHSEDLQSLLLRVANAVSVKGIYKQMPGCFNFLRKKLFFKTSAS
modifications: Chimeric protein FRB-dCasp9

The test system of one assay is T-cells. The assay is described as follows: Deletion of chimeric protein-expressing T-cells with Rapamycin (Annexin-V/7AAD flow cytometry). The format is cell-based. The settings on record: different concentrations of Rapamycin, 48 hours; live cells expressing fluorescent proteins. The method, then:
T-cells were either transduced with eGFP alone (FIG. 2a), or co-transduced with FKBP12-dCasp9 (co-expressing eGFP) and FRB-dCasp9 (co-expressing eBFP2) (FIG. 2b). T-cells were intentionally only partially transduced so that the non-transduced T-cells would act as internal controls. […] After 48 hours, cells were stained with Annexin-V and 7AAD and analysed by flow cytometry looking at the proportion of live cells which were expressing fluorescent proteins.
FIG. 3—Function of RapCasp9 variants. T-cells were transduced with (a) eGFP alone; (b) double transduced with FKBP12-Casp9 and FRB-Casp9 co-expressed with eGFP and eBFP2 respectively; (c) transduced with FRB-FKBP12-Casp9 and (d) transduced with FRB-Casp9-FKBP12 and (e) FBP12-Casp9-2A-FRB-FRBw. Only a proportion of cells were transduced, the negative cells acted as an internal negative control. […] T-cells were then stained with Annexin-V and 7AAD and analysed by flow-cytometry. eGFP vs eBFP2 is shown on live cells as determined by Annexin-V and 7AAD staining.
T-cells were transduced with the different constructs. For the two-molecule rapCasp9 (FIG. 1a), T-cells were transduced with two vectors: one coding for FKBP12-Casp9 co-expressed with the green fluorescent protein eGFP by means of an internal ribosome entry sequence, and the other coding for FRB-Casp9 co-expressed with the blue fluorescent protein eBFP2. For the one molecule rapCasp9 (FIG. 1b), T-cells were transduced with just one vector coding for the respective rapCasp9 which are co-expressed eGFP. A construct which provided FKB12-Casp9 and FRB-FRBw was encoded in a tri-cistronic cassette whereby the FKBP12-Casp9 and FRB-FRBw were co-expressed using a FMD-2A like peptide and eGFP was co-expressed with an IRES. The T-cells were intentionally only partially transduced so within the cell culture a proportion of cells remained non-transduced to act as an internal negative control.
Following this, T-cells were stained with Annexin-V and 7AAD and analysed by flow-cytometry. By gating on the live cells, and interrogating the population of cells expressing fluorescent proteins, survival of the transduced and non-transduced populations could be clearly measured.
In the case of “FKBP12-Casp9/FRB-FRBw: Caspase 9 catalytic domain fused to FKBP12, co-expressed with a fusion of two copies of FRB”, the “deletion of transduced T-cells” value is reported as “effective deletion of single positive cells”.
Regarding “FKBP12-Casp9: catalytic domain of Casp9 fused with FKBP12; tested co-expressed with FRB-Casp9”, the “deletion of transduced T-cells” value is on record as “effective deletion of only double positive cells”.
Turning to “FKBP12-FRB-Casp9: single construct where FKBP12 and FRB are fused together and then fused to the catalytic domain of Casp9 by a flexible linker”, the “deletion of transduced T-cells” value is “effective deletion of single positive cells”.
Consider B1, for which the “deletion of transduced T-cells” value is “effective deletion of only double positive cells”.

Still in this assay, the particulars now being: lowest concentration of Rapamycin, 48 hours; co-transduced pair.
As to “FKBP12-Casp9: catalytic domain of Casp9 fused with FKBP12; tested co-expressed with FRB-Casp9”, the “deletion of T-cells expressing both eGFP and eBFP2” value is “very effectively deleted”.
On the same count and under the same terms, the entry for B1 is “very effectively deleted”.
